Results on one molecule are retold here after article PMC7391726, “Fatty acid mimetic PBI-4547 restores metabolic homeostasis via GPR84 in mice with non-alcoholic fatty liver disease” (Scientific Reports, 2020).

One assay concerns the target T1, PPARδ (Homo sapiens, UniProt Q03181).
T1 construct: glutathione S-transferase (GST)-tagged human PPAR-LBD; purchased Fisher Scientific
T1 sequence (Q03181 211-439 limits assumed): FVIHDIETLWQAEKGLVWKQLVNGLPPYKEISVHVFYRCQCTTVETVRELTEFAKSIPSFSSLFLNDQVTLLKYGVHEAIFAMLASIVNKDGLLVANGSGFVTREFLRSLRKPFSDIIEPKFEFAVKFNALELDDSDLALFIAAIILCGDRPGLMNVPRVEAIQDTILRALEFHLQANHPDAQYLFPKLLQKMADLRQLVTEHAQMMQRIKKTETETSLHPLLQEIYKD
The experiment in a line: LanthaScreen TR-FRET competitive binding assay, PPARδ LBD. Conditions: Cheng-Prusoff; read-out: Ki inhibition constant, PPARδ LBD. From the text:
The peroxisome proliferator-activated receptors (PPARs), PPARα, PPARδ, and PPARγ are ligand-dependent transcription factors regulated by FAs, including MCFAs, which control expression of several key metabolism-associated genes. We thus characterized the binding and transcriptional activity of PBI-4547 to these receptors. A LanthaScreen TR-FRET competitive binding assay was used to determine the binding affinity of PBI-4547 in comparison to the full control agonists GW7647 (PPARα), GW0742 (PPARδ), and rosiglitazone (PPARγ).
The LanthaScreen time-resolved fluorescence resonance energy transfer (TR-FRET) PPARα, PPARδ and PPARγ competitive binding assay (Fisher Scientific) was performed according to the manufacturer’s protocol. […] The FRET signal was measured using an Infinite M1000 microplate reader by excitation at 332 nm and emission at 520 nm for fluorescein and 490 nm for terbium. Competitive ligand binding to PPAR is detected by a test compound’s ability to displace the Fluormone pan-PPAR Green from the LBD, which results in a decrease of the 520 nm/490 nm TR-FRET ratio. The inhibition constant (Ki) of the competitor ligand was calculated by applying the Cheng-Prusoff equation.

The target of the next assay is T2, PPARγ (Homo sapiens, UniProt P37231).
T2 construct: PPARγ (S176–Y477); expressed in transfected cells; host or cells: HEK293
T2 sequence (P37231 176-477 isoform P37231-2): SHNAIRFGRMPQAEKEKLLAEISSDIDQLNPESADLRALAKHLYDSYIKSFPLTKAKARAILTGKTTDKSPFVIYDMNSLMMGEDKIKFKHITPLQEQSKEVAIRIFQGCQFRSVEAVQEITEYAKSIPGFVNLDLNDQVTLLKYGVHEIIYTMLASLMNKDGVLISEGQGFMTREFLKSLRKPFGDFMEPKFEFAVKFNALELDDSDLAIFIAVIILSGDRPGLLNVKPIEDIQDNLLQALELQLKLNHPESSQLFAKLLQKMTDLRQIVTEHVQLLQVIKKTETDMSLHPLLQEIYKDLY
The experiment in a line: Cell-based GAL4 transactivation assay in HEK293 cells, PPARγ LBD. From the text:
To determine the transcriptional activity of PBI-4547, a cell-based GAL4 transactivation assay in HEK293 cells transfected with either PPARα, PPARδ, or PPARγ LBD was used. […] However, PBI-4547 only partially activated PPARγ transcriptional activity, with a relative maximal efficacy of 38% of the control agonist rosiglitazone.
Generation of the Gαi2, Gαq, and GPR40/β-arrestin-2 BRET biosensors have been described previously. A plasmid encoding the human GPR120-L (long isoform) cDNA was obtained from R&D Systems. GPR120-S (short isoform) was generated by replacing the BglII-BsgI fragment from GPR120-L by a gBlock gene fragment (Integrated DNA Technologies, Coralville, IA) lacking the DNA sequence corresponding to the extra 16 amino acids found in the third intracellular loop of the long form. The GPR120-GFP10 construct was generated by inserting PCR-amplified GPR120-S (without its stop codon) in place of GPR40 in the GPR40-GFP10 plasmid. […]
HEK293 cells were co-transfected with pGL4.35[luc2P/9XGAL4UAS/Hygro] and GAL4-PPAR-Rluc plasmids, and after 24 h of incubation were treated with compounds for 24 h. Luciferase activity was determined with the Dual Glo luciferase assay (Promega). Firefly luminescence was normalized to the constitutively expressed Renilla luminescence, and results expressed as fold induction of vehicle control.

As to `CCCCCc1cc(CCCCC)cc(CC(=O)[O-])c1.[Na+]` [PBI-4547, 2-[3,5-dipentylphenyl]acetate sodium salt], the Ki on PPARδ is 3.16 µM. For the same molecule, the EC50 at PPARγ (HEK293, 24 h, read-out: EC50, PPARγ transcriptional activity) was found to be 3.6 µM. The Emax on PPARγ (HEK293, of the control agonist rosiglitazone, read-out: relative maximal efficacy, PPARγ transcriptional activity) amounted to 38%.
